The values that follow come from patent publication US6191135A, “Neurokinin antagonists” (Boehringer Ingelheim KG, priority 1994, dated 2001).

Each structure is given as a SMILES string.

The experiment deals with T1, NK1 -receptor (substance P-receptor) (Homo sapiens, UniProt P25103).
T1 construct: intact human lymphoblastoma cells (IM-9) which express NK1 -receptors; endogenous in cells; host or cells: IM-9 human lymphoblastoma cells
T1 sequence (P25103 whole entry): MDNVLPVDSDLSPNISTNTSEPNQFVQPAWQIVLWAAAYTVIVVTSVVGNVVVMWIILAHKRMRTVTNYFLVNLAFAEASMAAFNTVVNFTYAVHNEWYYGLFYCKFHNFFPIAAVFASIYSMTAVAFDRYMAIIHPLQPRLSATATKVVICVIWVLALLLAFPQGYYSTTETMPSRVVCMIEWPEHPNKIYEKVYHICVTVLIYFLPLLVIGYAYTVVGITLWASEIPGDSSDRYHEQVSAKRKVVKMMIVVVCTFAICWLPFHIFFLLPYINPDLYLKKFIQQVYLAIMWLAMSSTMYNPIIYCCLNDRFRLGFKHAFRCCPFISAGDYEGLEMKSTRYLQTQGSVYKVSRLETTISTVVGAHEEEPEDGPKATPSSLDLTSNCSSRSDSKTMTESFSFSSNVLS
As to the kind of experiment: NK1-receptor affinity: displacement of 125I labelled substance P on intact human lymphoblastoma cells (IM-9). To be noted: intact human lymphoblastoma cells (IM-9) expressing NK1-receptors, read-out: Ki. Format: binding. As to the method:
The receptor affinity for the NK1 -receptor (substance P-receptor) was determined on intact human lymphoblastoma cells (IM-9) which express NK1 -receptors, and the displacement of ^125 I labelled substance P was measured.
For `CCCN1CCN(C(CNCc2cc(C(F)(F)F)cc(C(F)(F)F)c2)c2ccccc2OC)CC1` (centres unmarked) [Example 32, 3,5-Bistrifluoromethylbenzyl-[2-(2-methoxyphenyl)-2-(4-(1-propyl)-piperazine-1-yl)-ethyl]-amine], the Ki is 23 nM. The result for `CCCN1CCN(C(CNC(=O)Nc2cc(C(F)(F)F)cc(C(F)(F)F)c2)c2ccccc2OC)CC1` (centres unmarked) [Example 108, N-3,5-Bistrifluoromethylphenyl-N'-[2-(2-methoxyphenyl)-2-(4-(1-propyl)piperazine-1-yl)-ethyl]-urea] reads 34 nM; that for `COc1ccccc1C(CNCc1cc(C(F)(F)F)cc(C(F)(F)F)c1)N1CC(C)CC(C)C1` (centres unmarked) [Example 83, 3,5-Bistrifluoromethylbenzyl-[2-(2-methoxyphenyl)-2-(3,5-dimethylpiperidine-1-yl)-ethyl]-amine], 209 nM; that for `COc1ccccc1C(CNCCc1cc(C(F)(F)F)cc(C(F)(F)F)c1)N1CCN(C2CCCCCC2)CC1` (centres unmarked) [Example 69, 2-(3,5-Bistrifluoromethylphenyl)-2'-(2-methoxyphenyl)-2'-(4-cycloheptylpiperazine-1-yl)-diethylamine], 16 nM. With `COc1ccccc1C(CNCc1cc(C(F)(F)F)cc(C(F)(F)F)c1)N1CCC(C)CC1` (centres unmarked) [Example 82, 3,5-Bistrifluoromethylbenzyl-[2-(2-methoxyphenyl)-2-(4-methylpiperidine-1-yl)-ethyl]-amine], the Ki worked out at 52 nM. Consider `O=C(NCC(c1ccccc1)N1CCN(C2CCCCC2)CC1)Nc1ccccc1Cl` (centres unmarked) [Example 113, N-2-Chlorophenyl-N'-[2-phenyl-2-(4-cyclohexylpiperazine-1-yl)-ethyl]-urea], for which the Ki amounted to 403 nM. The result for `COc1ccccc1C(CNC(=O)Nc1cc(C(F)(F)F)cc(C(F)(F)F)c1)N1CCN(Cc2ccc3c(c2)OCO3)CC1` (centres unmarked) [Example 148, N-3,5-Bistrifluoromethylphenyl-N'-[2-(2-methoxyphenyl)-2-(3,4-methylenedioxybenzyl-piperazine-1-yl)-ethyl]-urea] reads 286 nM; that for `COc1ccccc1C(CNCc1cc(C(F)(F)F)cc(C(F)(F)F)c1)N1CCN(C2CCCC2)CC1` (centres unmarked) [Example 35, 3,5-Bistrifluoromethylbenzyl-[2-(2-methoxyphenyl)-2-(4-cyclopentylpiperazine-1-yl)-ethyl]-amine], 16 nM. The result for `COc1ccccc1C(CNCc1cc(C(F)(F)F)cc(C(F)(F)F)c1)N1CCN(C(C)C)CC1` (centres unmarked) [Example 34, 3,5-Bistrifluoromethylbenzyl-[2-(2-methoxyphenyl)-2-(4-(2-propyl)-piperazine-1-yl)-ethyl]-amine] reads 38 nM; that for `COc1ccccc1C(CNCCc1cc(C(F)(F)F)cc(C(F)(F)F)c1)N1CCN(C2CCCCC2)CC1` (centres unmarked) [Example 66, 2-(3,5-Bistrifluoromethylphenyl)-2'-(2-methoxyphenyl)-2'-(4-cyclohexylpiperazine-1-yl)-diethylamine], 23 nM.

In the case of `COc1ccccc1C(CNC(=O)Nc1cc(C(F)(F)F)cc(C(F)(F)F)c1)N1C2CCCC1CC2` (centres unmarked) [Example 176, N-3,5-Bistrifluoromethylphenyl-N'-[2-(2-methoxyphenyl)-2-(nortropan-8-yl)-ethyl]-urea], the Ki was 92 nM. The result for `COc1ccccc1C(CNC(=O)Nc1cc(C(F)(F)F)cc(C(F)(F)F)c1)N1CCN(C)CC1` (centres unmarked) [Example 107, N-3,5-Bistrifluoromethylphenyl-N'-[2-(2-methoxyphenyl)-2-(4-methylpiperazin-1-yl)-ethyl]-urea] reads 250 nM; that for `FC(F)(F)c1cc(CNCC(c2ccccc2)N2CCN(C3CCCCC3)CC2)cc(C(F)(F)F)c1` (centres unmarked) [Example 36, 3,5-Bistrifluoromethylbenzyl-[2-phenyl-2-(4-cyclohexylpiperazine-1-yl)-ethyl]-amine], 18 nM; that for `COc1ccccc1C(CNCc1cc(C(F)(F)F)cc(C(F)(F)F)c1)N1CCCC(c2ccccc2)C1` (single isomer, unassigned) [Example 86, 3,5-Bistrifluoromethylbenzyl-[2-(2-methoxyphenyl)-2-(3-phenylpiperidine-1-yl)-ethyl]-amine], 368 nM.
